Data on three substances can be found in patent US20260347399A1, “BRAIN PENETRATING PEPTIDES AND METHODS OF USE” (priority 2022, published 2026).

Data set [1] deals with mouse brain. Kind of data set: In vivo phage display with CX4CYX library. How it is done:
In vivo phage display with CX4CYX library was performed in three selection rounds. Phage library was injected intravenously to Balb/c mice and allowed to circulate for one hour. After circulation, the animals were anesthetized and perfused intracardially with acid and detergent buffers. Brain and control organs were collected and homogenized in 1% NP40-LB. Bound phages were rescued by amplification in E. coli and their genomic DNA was sequenced by Ion Torrent next generation DNA sequencing system.
A novel phage library CX4CYX was constructed based on the alanine-leucine screen to find new brain homing peptides). This knowledge directed us to construct a novel phage library CX4CYX (X—any amino acid), where Cys1, Cys6 and Tyr7 remained in their intact positions, and the four amino acid variable-domain laid between the cysteines, and one amino acid variability after Tyr7. Three rounds of phage bio-panning was performed to allow enrichment of peptides in the brain. Again acid and detergent buffers were used for perfusion to remove non-specifically bound phages from the brain after systemic administration of phage library (round 1) and recovered brain phage pools (round 2 and 3). HTS reads from round 1 to round 3 indicated decent enrichment of in-frame peptides in the brain (Table 6).

Data set [2] relates to mouse brain. Kind of data set: In vivo play-off screen with 10 published CNS homing peptide-phages. Particulars: phage pool i.v., 1 h; acid and detergent perfusion. How it is done: Play-off screen was carried out with 10 previously published BBB penetrating/CNS homing peptide-phages. […] Oligonucleotides were annealed and ligated into the phage genome using T7Select 415-1 cloning kit (Novagen) and the T7Select System Manual. Each peptide-phage was separately amplified in liquid bacterial culture, precipitated with PEG, recovered in PBS and titered. Phages were mixed in equimolar ratios and purified with CsCl-ultracentrifugation and dialysis. Titer of the play-off pool was determined and mice were intravenously injected with 1×10^10 pfu of phage pool. After one hour of circulation time, mice were perfused with acid buffer (500 mM NaCl, 0.1 M glycine, 1% BSA, pH2.5) and detergent buffer (1% NP40 in PBS), collected organs were homogenized and phage pools amplified for high-throughput sequencing.
Novel BBB penetrating and CNS homing peptide was identified in a step by step process including a phage play-off screens, alanine scanning mutagenesis and phage display with unique library. The first selection step included a phage play-off screen with ten previously published CNS homing peptides (Table 5). To ensure collecting BBB penetrating and CNS homing peptides, phage play-off pool was intravenously (iv) injected into the mice and perfusion was done with acid and detergent buffers to remove unbound phages and brake the endothelial layer of blood vessels. […]

For data set [3], the system named is activated microglia. In words: FAM-CVG colocalization with activated microglia in glioma. To be noted: FAM-labelled, i.v., 1 h; WT GBM, glioma edge and core. Type of data set: in vivo, mouse. How it is done: WT GBM glioma-bearing mice were injected iv with FAM-labelled CVG peptide for 1 hour circulation. Mice were perfused and tissues of interest were snap-frozen in the vapor of liquid nitrogen. Immunofluorescent staining was carried out with the following antibodies: FAM, CD68, CD11b and CD206.

The test system of data set [4] is mouse brain. In words: In vivo play-off of alanine-scan peptide-phages. Particulars: 5×10^9 pfu phage mix i.v., 1 h, HTS. How it is done:
To determine which amino acid positions are important for brain homing of Cerepep, in vivo play-off method was used. A pool of T7 peptide-phages was created, where each amino acid of Cerepep sequence was changed one-by-by to alanine and alanines were changed to leucines. These clones, original Cerepep peptide-phage clone and control insertless phage were mixed in equimolar ratio and 5×10^9 pfu of phage mix was injected i.v. into male Balb/C mice (n=2). Following 1 h circulation the animals were anesthetized and perfused with PBS. The prevalence of phage clones in the brain was determined by high throughput sequencing.
To determine which amino acid positions are important for brain homing of SERVISRAKLAAAL (SEQ ID NO:9), a pool of peptide-phage clones was compiled, where every amino acid position was one-by-one changed to alanine (alanines were changed to leucines). […] The phage mix was injected into mice and following a 1 h circulation the amount of different phage clones in the brain was determined using HTS. […]
Based on studies involving in vivo play-off analyses, it was determined that Arginines and isoleucine are crucial for the brain homing of Cerepep (CP) peptide. Every position of CP peptide was one-by one mutated to alanine (alanines were changed to leucines) and the brain homing of each mutated peptide-phage was assessed using in vivo play-off method (FIG. 7C). […]

Ends that are not written are not given here.

In data set [1] (round 1), CAGALCY [reference compound] displayed an R1 reads of 3 reads. In data set [1] (round 3), this substance returned an R3 reads of 880 reads. In addition, the “R3 > R1 (ratio of sequencing reads between round 3 and round 1)” value in data set [1] (round 3 / round 1) stood at 293. The “representation in the brain (HTS reads)” value in data set [2] is reported as “highest representation in the brain”.

Regarding “FAM-labelled CVG peptide: 5(6)-carboxyfluorescein-labelled CVGTNCY peptide (not fully specified (N-terminus); cysteine pairing not given here; also: 5(6)-carboxyfluorescein label, position not given here)”, the “colocalization with activated microglia markers CD68, CD11b and CD206” value in data set [3] is “colocalization with activated microglia markers CD68, CD11b and CD206 cells”.

As to RRVISRAKLAAAL, the “brain homing / brain accumulation of mutated peptide-phage” value in data set [4] is “appear to be necessary for brain homing”.
